One substance from patent publication US20200330615A1, “NONINVASIVE IMAGING OF FOCAL ATHEROSCLEROTIC LESIONS USING FLUORESCENCE MOLECULAR TOMOGRAPHY” (Washington University, priority 2015, published 2020) can be followed below.

Entries after “also recorded” stand apart in the source; their conditions may differ. Bridge positions count the residues as written; N and C are the ends. cypate = near infrared fluorescent dye cypate

The subject of data set [1] is NPR-C expressing macrophages. The experiment in a line: Ex vivo staining of paraffin fixed artery sections with LS668, fluorescence microscopy. Details: species or system rabbit; fluorescence signal of control artery section after ex vivo staining: dose or concentration left out as unconfirmed. The conditions noted are these: 30 min, 37° C. How it is done:
FIG. 3A, FIG. 3B and FIG. 3C depict images showing ex vivo studies on the paraffin fixed sections of injured (top row) and control artery (bottom row) sections obtained at 8 weeks postsurgery. FIG. 3A depicts bright field images showing IEL, internal elastic lamina; A, adventitia; M, media; 1° NEO, primary neointima. Scale: 500 m. FIG. 3B depicts corresponding fluorescence images (excitation/emission: 710 75 nm 810 90 nm) after ex vivo staining with LS668. Scale: 500 m. FIG. 3C depicts immunohistochemistry on tissue sections with clone RAM11 antibody (1:100 dilution; blue) for macrophages and counterstained with nuclear fast red. Scale: 250 m. Ex vivo histological validation studies were performed on the arteries at week 8 following the final imaging session. Prior to collecting the arterial segments, the vascular system was flushed with saline and then perfusion fixed with 4% paraformaldehyde and paraffin embedded. Tissue sections were deparaffinized for further studies. […] Histology sections were also stained for macrophages with mouse monoclonal antibody to rabbit macrophages (clone RAM11). Positive signal was visualized using alkaline phosphatase-conjugated secondary antibody and blue substrate, and nuclear fast red counterstain. […] Serial sections were also stained for alpha-smooth muscle actin (SMA).

On the set-up of data set [2]: species or system New Zealand white rabbits. The conditions noted are these: rabbit, in vivo. An excerpt: A model of focal atherosclerotic-like plaques in the femoral arteries (located 1 to 1.5 cm from skin surface) of New Zealand white rabbits was used. All animal studies performed were approved by the Washington University Animal Studies Committee. Endothelial denudation of surgically exposed right femoral artery was induced by air desiccation of the luminal surface as described previously.^4 The uninjured left femoral artery served as the internal control. The animals were maintained on a cholesterol-enriched diet (>200 mg dL in blood), and over time the air desiccation led to a focal lesion. In this animal model, anatomical coregistration was not used because the location of the lesion was apparent due to the surgical markings and identification by the surgeon at each imaging session. […] NPR-C (clearance receptor) removes NPs from circulation by receptor mediated endocytosis.^6 A bioconjugate LS668 (Cypate-RSSc[[…]]) (SEQ ID NO:3), consisting of a near infrared (NIR) fluorescent dye cypate conjugated to a targeting peptide, C-type atrial natriuretic peptide, specific for NPR-C was evaluated (FIG. 1A). […] Integrated fluorescence signal (directly related to the quantity of LS668 in tissue) was calculated from each tissue volume (thresholded at above 20% of respective maximum signal) (FIG. 2H). […]

Data set [3] deals with C-type natriuretic peptide receptors (NPR-C) on focal atherosclerotic lesions. The experiment in a line: In vivo fluorescence molecular tomography (FMT) of focal atherosclerotic lesions in femoral arteries. Also on record: species or system New Zealand white rabbits. To be noted: for integrated fluorescence signal, difference between control and injured arteries, P (unpaired t test, two tailed): n=3. An excerpt: Carotid artery atherosclerosis is classified as an important cause of stroke. Unstable plaque is characterized by an eccentric neo-intimal lesion with a lipid core covered by a thinning cap of smooth muscle cells, active angiogenesis, increased matrix metalloproteinase activity, and translocation of monocyte/macrophages that transform into foam cells. Timely noninvasive imaging that could signal prerupture plaque progression will reduce the morbidity and mortality by allowing early intervention.^1 Although positron emission tomography (PET) and magnetic resonance imaging (MRI) are routinely used for metabolic and morphologic imaging, these modalities are not suited for frequent monitoring or even screening of at-risk patients because of ionizing radiation (PET) and expense (PET, MRI). Transcutaneous Doppler and intravascular ultrasound are insensitive to the subtle molecular changes of critical importance. Fluorescence molecular tomography (FMT) is an emerging optical imaging technology that allows tomographic and quantitative visualization of molecular events in vivo.^2 In this study, a custom built, fiber-based, portable, video-rate FMT system was used for proof-of-principle studies to detect C-type natriuretic peptide receptors (NPR-C) on focal atherosclerotic lesions in the superficial rabbit femoral arteries. The FMT system consisted of a flexible imaging pad (3 cm×3 cm), containing 12 sources 785 nm 20 kHz, and 830 nm 17-kHz laser diodes as excitation source and reference, respectively.^3 The detectors allowed for dynamic concurrent acquisition of frequency encoded fluorescence emission (830 nm; 20 kHz) and transmission reference (830 nm; 17 kHz) signals for the fast generation of ratio-metric data for tomographic reconstruction of the tissue volume. The system could report varying concentrations (1 nM to 1 M) of indocyanine green at various depths up to 13.5 mm with a depth-dependent spatial resolution on the order of 12 mm.^3
A model of focal atherosclerotic-like plaques in the femoral arteries (located 1 to 1.5 cm from skin surface) of New Zealand white rabbits was used. All animal studies performed were approved by the Washington University Animal Studies Committee. Endothelial denudation of surgically exposed right femoral artery was induced by air desiccation of the luminal surface as described previously.^4 The uninjured left femoral artery served as the internal control. The animals were maintained on a cholesterol-enriched diet (>200 mg dL in blood), and over time the air desiccation led to a focal lesion. In this animal model, anatomical coregistration was not used because the location of the lesion was apparent due to the surgical markings and identification by the surgeon at each imaging session. In a clinical setting, coregistration of the FMT probe with the ultra sound (US) probe can be utilized. […] Natriuretic peptides (NPs) play an important role in regulating cardiovascular homeostasis. NPR-C (clearance receptor) removes NPs from circulation by receptor mediated endocytosis.^6 A bioconjugate LS668 (Cypate-RSSc[[…]]) (SEQ ID NO:3), consisting of a near infrared (NIR) fluorescent dye cypate conjugated to a targeting peptide, C-type atrial natriuretic peptide, specific for NPR-C was evaluated (FIG. 1A). […] Both injured and control femoral arteries of three animals were imaged at day 3 and weeks 1, 2, 4, 6, and 8 following the surgery. […]

Data set [4] deals with T1, NPR-C (Homo sapiens, UniProt P17342).
T1 construct: expressed in transfected cells; host or cells: 293T
T1 sequence (P17342 27-541): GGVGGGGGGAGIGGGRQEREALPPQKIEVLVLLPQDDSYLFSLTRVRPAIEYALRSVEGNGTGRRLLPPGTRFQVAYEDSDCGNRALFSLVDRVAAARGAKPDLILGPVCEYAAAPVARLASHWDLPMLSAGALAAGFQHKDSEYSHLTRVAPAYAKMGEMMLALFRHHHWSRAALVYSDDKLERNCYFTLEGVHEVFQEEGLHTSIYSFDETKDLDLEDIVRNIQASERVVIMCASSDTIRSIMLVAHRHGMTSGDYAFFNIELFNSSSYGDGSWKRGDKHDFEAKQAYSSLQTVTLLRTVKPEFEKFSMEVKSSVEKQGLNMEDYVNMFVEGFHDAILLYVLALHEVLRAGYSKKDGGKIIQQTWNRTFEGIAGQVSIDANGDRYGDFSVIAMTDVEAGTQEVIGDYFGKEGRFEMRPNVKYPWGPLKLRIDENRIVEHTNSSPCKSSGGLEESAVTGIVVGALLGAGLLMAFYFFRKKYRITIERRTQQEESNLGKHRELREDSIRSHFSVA
The experiment in a line: Cellular internalization of LS668 in stably transfected 293T-NPR-C cells (fluorescence microscopy). The data set is classed as cell-based. Details: cellular internalization in presence of excess C-ANF peptide: dose or concentration left out as unconfirmed.

The target in data set [5] is T2, NPR-A (Homo sapiens, UniProt P16066).
T2 construct: expressed in transfected cells; host or cells: 293T
T2 sequence (P16066 33-1061): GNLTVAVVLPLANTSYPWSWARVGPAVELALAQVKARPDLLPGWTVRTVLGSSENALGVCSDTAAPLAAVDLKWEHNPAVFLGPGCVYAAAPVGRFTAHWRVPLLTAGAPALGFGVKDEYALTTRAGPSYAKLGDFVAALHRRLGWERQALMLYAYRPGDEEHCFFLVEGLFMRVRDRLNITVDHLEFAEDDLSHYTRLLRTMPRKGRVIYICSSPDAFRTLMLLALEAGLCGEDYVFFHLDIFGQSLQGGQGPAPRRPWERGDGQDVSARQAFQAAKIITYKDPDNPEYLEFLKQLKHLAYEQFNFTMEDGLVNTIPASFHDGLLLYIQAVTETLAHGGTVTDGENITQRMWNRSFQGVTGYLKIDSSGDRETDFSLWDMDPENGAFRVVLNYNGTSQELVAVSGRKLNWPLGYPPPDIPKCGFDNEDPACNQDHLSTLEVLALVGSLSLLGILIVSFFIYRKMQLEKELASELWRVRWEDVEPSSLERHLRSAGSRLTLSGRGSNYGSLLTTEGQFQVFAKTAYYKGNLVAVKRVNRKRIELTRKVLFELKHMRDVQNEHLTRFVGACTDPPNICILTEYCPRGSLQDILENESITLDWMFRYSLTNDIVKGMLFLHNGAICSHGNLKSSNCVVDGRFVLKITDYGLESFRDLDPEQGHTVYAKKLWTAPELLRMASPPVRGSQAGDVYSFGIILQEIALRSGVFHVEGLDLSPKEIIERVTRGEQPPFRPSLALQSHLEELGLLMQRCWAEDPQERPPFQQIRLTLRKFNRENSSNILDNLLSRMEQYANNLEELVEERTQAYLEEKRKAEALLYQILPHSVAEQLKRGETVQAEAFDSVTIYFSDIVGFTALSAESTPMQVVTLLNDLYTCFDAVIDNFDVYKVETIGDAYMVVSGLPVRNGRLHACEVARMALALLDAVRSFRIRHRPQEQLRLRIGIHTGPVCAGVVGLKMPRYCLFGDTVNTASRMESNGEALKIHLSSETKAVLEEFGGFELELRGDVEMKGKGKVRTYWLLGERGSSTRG
The experiment in a line: Cellular internalization of LS668 in control 293T-NPR-A cells (fluorescence microscopy). Type of data set: cell-based.

Data set [6] can be described thus: Ex vivo tissue biodistribution, injured vs control femoral artery. Type of data set: in vivo, New Zealand white rabbits. To be noted: 24-h post-injection at week 8, n=2. An excerpt:
FIG. 2A, FIG. 2B, FIG. 2C, FIG. 2D, FIG. 2E, FIG. 2F, FIG. 2G, FIG. 2H and FIG. 2I depict images showing coronal (depth=7 mm), sagittal and transverse sections of reconstructed fluorescence molecular tomography (FMT) signal from injured artery (FIG. 2A, FIG. 2B, FIG. 2C) and corresponding control artery (FIG. 2D, FIG. 2E, FIG. 2F) from a representative animal (rabbit 1). White lines indicate the position of the respective sagittal and transverse sections. […] FIG. 2H depicts a graph showing time dependent changes in integrated fluorescence signal (mean SD, n=3) for injured and control arteries (*P=0.0283; **P=0.0282). FIG. 2I depicts a graph showing the mean (n=2) fluorescence intensity obtained from the ex vivo injured artery containing the lesion and the control artery.
A model of focal atherosclerotic-like plaques in the femoral arteries (located 1 to 1.5 cm from skin surface) of New Zealand white rabbits was used. All animal studies performed were approved by the Washington University Animal Studies Committee. […] NPR-C (clearance receptor) removes NPs from circulation by receptor mediated endocytosis.^6 A bioconjugate LS668 (Cypate-RSSc[[…]]) (SEQ ID NO:3), consisting of a near infrared (NIR) fluorescent dye cypate conjugated to a targeting peptide, C-type atrial natriuretic peptide, specific for NPR-C was evaluated (FIG. 1A). […]

The mark [7] stands for this setting: 0.1 mg kg intravenous, FMT 24 h later.

Consider “Cypate-RSSc[CFGGRIDRIGAC] (cypate-RSSCFGGRIDRIGAC-NH2; disulfide 4-15 (inferred); not fully specified) [LS668]”, for which the “fluorescence signal of control artery section after ex vivo staining” value in data set [1] (week 8 control artery) was “uniform fluorescence signal akin to nonspecific background”. Besides, the “fluorescence signal of injured artery section after ex vivo staining” value in data set [1] (LS668 10 M, week 8 injured artery, layers between adventitia and lumen) is on record as “increased signal”. The “time at which clearance from blood was achieved” value in data set [2] came out at 24 h. In addition, in data set [3] (setting [7]), the “uptake by tissue surrounding the localized fluorescent region” value was “negligible nonspecific uptake” and the “uptake in contralateral noninjured control femoral artery” value is given as “negligible background uptake”. The “accumulation at focal lesion (reconstructed FMT data)” value in data set [3] (0.1 mg kg intravenous, FMT 24 h later, injured artery, depth of 4 to 16 mm, over 15 mm of length) is reported as “localized fluorescence signal indicating accumulation of LS668”. In data set [3] (week 2 after surgery), the “integrated fluorescence signal, difference between control and injured arteries, P (unpaired t test, two tailed)” value came out at 0.0283. For the same substance, in data set [3] (week 6 after surgery), the “integrated fluorescence signal, difference between control and injured arteries, P (unpaired t test, two tailed)” value is recorded as 0.0282. The “cellular internalization in presence of excess C-ANF peptide” value in data set [4] (293T-NPR-C cells) is “Internalization was blocked; also recorded: inhibition of internalization”. Besides, the cellular internalization entry in data set [4] (LS668, 30-min incubation at 37° C., 5% CO2, stably transfected 293T-NPR-C cells) is on record as “selectively internalized; also recorded: cellular internalization”. Further, the “cellular internalization in control cells” value in data set [5] is listed as “did not internalize; also recorded: absence of internalization”. The “localization into injured femoral artery as compared to control femoral artery” value in data set [6] came to 3.7 fold.
